Measured values taken from patent publication US20230064983A1 (priority 2020, published 2023).
Values joined by “and” are separate entries in the source; they are usually repeats but may differ in a detail not shown here. Identical values can stand only once.

Columns and labels:
[1] = target: Ba/F3-EGFR-D770_N771insSVD cells (Homo sapiens, UniProt P00533, DUP768-770, cells depend on it); test: Ba/F3 cell survival assay, EGFR D770_N771insSVD; assay type: cell-based; settings: Cell Titer-Glo, 48 h, without IL-3; Table 4; read-out: BA/F3 (insSVD) IC50
[2] = target: T1, EGFR with insertion SVD between D770 and N771 (mutEGFR D770_N771insSVD) (Homo sapiens, UniProt P00533, DUP768-770); test: Exon20-Mutant-EGFR(D770_N771insSVD) kinase assay (TR-FRET); assay type: biochemical; settings: 2 mM ATP, Table 2
T1 construct: amino acids R669 to A1210; made in house; host or cells: Sf9 insect cells (baculovirus)

Ba/F3-EGFR-WT cells = Ba/F3-EGFR-WT cells (Homo sapiens, UniProt P00533); test: Ba/F3 cell survival assay, wild type EGFR; assay type: cell-based; settings: Cell Titer-Glo, 48 h, with 10 ng/mL EGF; Table 4; read-out: BA/F3 (wild type) IC50
Bub1 = target: T2, Bub1 (Homo sapiens, UniProt O43683); test: Bub1 high ATP kinase assay (TR-FRET); assay type: biochemical; settings: Bub1 high ATP (2 mM) IC50, TR-FRET, 2 mM ATP; Table 3
T2 construct: catalytic domain of human Bub1 (amino acids 704-1085); His6 (N); made in house; host or cells: insect cells (Hi5)
Excerpt: Bub1 high ATP Kinase Assay
Bub1-inhibitory activity of compounds of the present invention at a high ATP concentration was quantified employing the Bub1 TR-FRET high ATP kinase assay as described in the following paragraphs.
N-terminally His6-tagged recombinant catalytic domain of human Bub1 (amino acids 704-1085), expressed in insect cells (Hi5) and purified by Ni-NTA affinity chromatography and subsequent size exclusion chromatography, was used as enzyme. As substrate for the kinase reaction the biotinylated peptide biotin-Ahx-[…] (C-terminus in amid form) was used which can be purchased e.g. form the company Biosyntan (Berlin, Germany).
Then the kinase reaction was started by the addition of 2 μl of a solution of Bub1 in assay buffer and the resulting mixture was incubated for a reaction time of 60 min at 22° C. The concentration of Bub1 was adjusted depending of the activity of the enzyme lot and was chosen appropriate to have the assay in the linear range, a typical concentration is about 200 ng/ml. The reaction was stopped by the addition of 3 μl of a solution of TR-FRET detection reagents (0.167 μM streptavidine-XL665 [Cisbio Bioassays, Codolet, France] and 1.67 nM anti-phosho-Serine antibody [Merck Millipore, cat. #35-002] and 0.67 nM LANCE EU-W1024 labeled anti-mouse IgG antibody [Perkin-Elmer, product no. AD0077, as an alternative a Terbium-cryptate-labeled anti-mouse IgG antibody from Cisbio Bioassays can be used]) in an aqueous EDTA-solution (83.3 mM EDTA, 0.2% (w/v) bovine serum albumin in 100 mM HEPES pH 7.5).
The resulting mixture was incubated 1 h at 22° C. to allow the formation of complex between the phosphorylated biotinylated peptide and the detection reagents. Subsequently the amount of phosphorylated substrate was evaluated by measurement of the resonance energy transfer from the Eu-chelate to the streptavidine-XL. Therefore, the fluorescence emissions at 620 nm and 665 nm after excitation at 350 nm was measured in a TR-FRET reader, e.g. a Pherastar or Pherastar FS (both from BMG Labtechnologies, Offenburg, Germany) or a Viewlux (Perkin-Elmer). The ratio of the emissions at 665 nm and at 622 nm was taken as the measure for the amount of phosphorylated substrate.

Sequence of Ba/F3-EGFR-D770_N771insSVD cells (P00533 with tags, fused parts or gaps DUP768-770): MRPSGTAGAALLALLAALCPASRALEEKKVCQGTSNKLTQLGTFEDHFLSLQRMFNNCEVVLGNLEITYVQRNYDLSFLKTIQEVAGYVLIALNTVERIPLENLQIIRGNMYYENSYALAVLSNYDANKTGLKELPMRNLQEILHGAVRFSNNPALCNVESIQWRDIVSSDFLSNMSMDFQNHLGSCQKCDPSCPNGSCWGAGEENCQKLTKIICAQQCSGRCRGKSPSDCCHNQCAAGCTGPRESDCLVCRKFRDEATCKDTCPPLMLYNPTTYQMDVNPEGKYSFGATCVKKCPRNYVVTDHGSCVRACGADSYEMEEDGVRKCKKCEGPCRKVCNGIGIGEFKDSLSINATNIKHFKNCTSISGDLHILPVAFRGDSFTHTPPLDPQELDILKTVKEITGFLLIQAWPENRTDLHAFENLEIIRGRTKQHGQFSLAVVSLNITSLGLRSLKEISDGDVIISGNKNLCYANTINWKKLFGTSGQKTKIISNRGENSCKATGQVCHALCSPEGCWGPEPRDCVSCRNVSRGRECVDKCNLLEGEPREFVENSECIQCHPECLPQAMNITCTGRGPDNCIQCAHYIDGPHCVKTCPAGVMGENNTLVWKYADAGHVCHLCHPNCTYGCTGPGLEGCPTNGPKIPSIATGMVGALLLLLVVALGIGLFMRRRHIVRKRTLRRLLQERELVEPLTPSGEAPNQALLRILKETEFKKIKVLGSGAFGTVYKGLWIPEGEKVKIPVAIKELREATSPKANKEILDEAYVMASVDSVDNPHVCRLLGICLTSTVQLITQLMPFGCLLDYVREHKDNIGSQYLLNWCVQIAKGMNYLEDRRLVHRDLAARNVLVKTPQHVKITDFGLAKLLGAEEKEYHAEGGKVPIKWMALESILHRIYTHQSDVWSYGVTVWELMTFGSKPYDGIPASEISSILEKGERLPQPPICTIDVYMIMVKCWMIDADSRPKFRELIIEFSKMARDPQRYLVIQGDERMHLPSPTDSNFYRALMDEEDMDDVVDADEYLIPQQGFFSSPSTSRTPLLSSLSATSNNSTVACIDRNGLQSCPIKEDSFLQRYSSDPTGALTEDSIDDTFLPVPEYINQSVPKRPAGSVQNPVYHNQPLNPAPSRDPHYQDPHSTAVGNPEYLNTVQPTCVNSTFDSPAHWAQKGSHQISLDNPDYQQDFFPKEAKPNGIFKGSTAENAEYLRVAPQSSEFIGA
Sequence of Ba/F3-EGFR-WT cells (P00533 whole entry, looked up, change not shown): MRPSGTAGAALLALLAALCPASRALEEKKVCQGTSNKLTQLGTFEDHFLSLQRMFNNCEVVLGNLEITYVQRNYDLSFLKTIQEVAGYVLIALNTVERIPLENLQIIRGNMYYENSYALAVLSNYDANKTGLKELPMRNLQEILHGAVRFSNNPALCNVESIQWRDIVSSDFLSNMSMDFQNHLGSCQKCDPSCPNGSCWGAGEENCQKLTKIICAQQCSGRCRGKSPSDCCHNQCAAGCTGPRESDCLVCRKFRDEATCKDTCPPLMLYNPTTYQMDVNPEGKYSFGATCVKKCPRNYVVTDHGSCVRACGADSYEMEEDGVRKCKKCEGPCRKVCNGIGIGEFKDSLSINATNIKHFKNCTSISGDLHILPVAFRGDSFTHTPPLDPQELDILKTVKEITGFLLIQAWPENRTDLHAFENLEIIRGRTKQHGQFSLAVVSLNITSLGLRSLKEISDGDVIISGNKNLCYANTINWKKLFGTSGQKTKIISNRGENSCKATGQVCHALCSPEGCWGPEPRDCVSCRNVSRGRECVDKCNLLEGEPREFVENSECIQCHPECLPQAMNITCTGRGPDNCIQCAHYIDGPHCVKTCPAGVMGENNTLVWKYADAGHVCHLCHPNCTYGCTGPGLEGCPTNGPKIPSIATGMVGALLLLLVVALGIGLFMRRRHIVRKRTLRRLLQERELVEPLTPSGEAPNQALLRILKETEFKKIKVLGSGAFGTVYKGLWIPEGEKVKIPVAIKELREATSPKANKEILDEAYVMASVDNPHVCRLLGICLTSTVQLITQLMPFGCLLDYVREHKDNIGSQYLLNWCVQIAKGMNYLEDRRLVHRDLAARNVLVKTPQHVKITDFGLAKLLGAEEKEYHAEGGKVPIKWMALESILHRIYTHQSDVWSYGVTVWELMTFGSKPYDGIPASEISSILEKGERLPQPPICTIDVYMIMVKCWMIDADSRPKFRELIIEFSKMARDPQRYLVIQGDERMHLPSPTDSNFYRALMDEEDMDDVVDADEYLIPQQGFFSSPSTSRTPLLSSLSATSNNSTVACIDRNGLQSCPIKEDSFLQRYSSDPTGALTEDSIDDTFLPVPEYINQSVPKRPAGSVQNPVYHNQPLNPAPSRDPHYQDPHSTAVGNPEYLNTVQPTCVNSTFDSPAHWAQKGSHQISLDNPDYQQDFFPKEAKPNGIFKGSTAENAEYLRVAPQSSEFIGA
T1 sequence (P00533 other isoform, or with tags, fused parts or gaps DUP768-770): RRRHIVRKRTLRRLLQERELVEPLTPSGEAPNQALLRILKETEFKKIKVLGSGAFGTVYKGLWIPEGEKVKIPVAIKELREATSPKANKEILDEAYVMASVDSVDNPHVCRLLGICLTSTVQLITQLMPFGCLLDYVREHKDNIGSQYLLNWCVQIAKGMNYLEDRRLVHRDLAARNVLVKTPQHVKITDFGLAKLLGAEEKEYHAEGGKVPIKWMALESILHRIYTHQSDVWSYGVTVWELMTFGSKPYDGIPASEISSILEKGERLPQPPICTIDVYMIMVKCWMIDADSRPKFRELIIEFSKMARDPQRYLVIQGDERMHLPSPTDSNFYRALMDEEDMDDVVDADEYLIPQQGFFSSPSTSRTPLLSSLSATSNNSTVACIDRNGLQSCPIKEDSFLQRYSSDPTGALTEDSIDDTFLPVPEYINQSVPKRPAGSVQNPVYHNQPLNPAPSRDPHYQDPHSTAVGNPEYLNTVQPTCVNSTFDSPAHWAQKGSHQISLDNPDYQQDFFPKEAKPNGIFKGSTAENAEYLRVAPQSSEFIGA
T2 sequence (O43683 704-1085): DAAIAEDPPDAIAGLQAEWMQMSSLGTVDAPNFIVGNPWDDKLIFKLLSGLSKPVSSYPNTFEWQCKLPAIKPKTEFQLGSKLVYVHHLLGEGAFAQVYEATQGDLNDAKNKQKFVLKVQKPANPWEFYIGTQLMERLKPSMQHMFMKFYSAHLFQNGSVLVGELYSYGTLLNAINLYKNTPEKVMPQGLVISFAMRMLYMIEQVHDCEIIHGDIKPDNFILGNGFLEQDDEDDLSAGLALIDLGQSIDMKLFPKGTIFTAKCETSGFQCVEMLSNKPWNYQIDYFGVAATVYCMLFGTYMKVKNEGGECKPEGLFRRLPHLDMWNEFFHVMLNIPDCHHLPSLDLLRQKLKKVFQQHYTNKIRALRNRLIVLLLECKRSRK

| SMILES | GI50 [1] [nM] | mutEGFR (D770_N771insSVD) kinase assay IC50 [2] | GI50 (Ba/F3-EGFR-WT cells) [nM] | IC50 (Bub1) |
| --- | --- | --- | --- | --- |
| COc1c(Cl)cccc1Nc1c(-c2ccncc2OCCC2CCCCO2)[nH]c2c1C(=O)NC1(CCC1)C2 (stereo not drawn) [Example 128, 3-(3-chloro-2-methoxy-anilino)-2-[3-(2-tetrahydropyran-2-ylethoxy)-4-pyridyl]spiro[5,7-dihydro-1H-pyrrolo[3,2-c]pyridine-6,1′-cyclobutane]-4-one] | 38.4 | 1.06 nM | 942 | 726 nM |
| Cc1c(Cl)cccc1Nc1c(-c2ccncc2OCC2COCCO2)[nH]c2c1C(=O)NCC2C (single isomer, unassigned) [Example 68, 3-(3-chloro-2-methyl-anilino)-2-[3-(1,4-dioxan-2-ylmethoxy)-4-pyridyl]-7-methyl-1,5,6,7-tetrahydropyrrolo[3,2-c]pyridin-4-one] | 63.7 | 0.3 nM | 1380 | 5130 nM |
| COc1c(Cl)cccc1Nc1c(-c2ccncc2OC[C@@H]2COCCO2)[nH]c2c1C(=O)NC1(CC1)C2 [Example 111, 3′-(3-chloro-2-methoxyanilino)-2′-(3-{[(2S)-1,4-dioxan-2-yl]methoxy}pyridin-4-yl)-1′,7′-dihydrospiro[cyclopropane-1,6′-pyrrolo[3,2-c]pyridin]-4′(5′H)-one] | 19.4 | 0.205 nM | 574 | 374 nM |
| COc1c(Cl)cccc1Nc1c(-c2ccncc2OC[C@@H]2CCCO2)[nH]c2c1C(=O)NCC2CC=C(F)F (single isomer, unassigned) [Example 100] | 58.9 | 0.35 nM | 990 | 3640 nM |
| COc1c(Cl)cccc1Nc1c(-c2ccncc2OC[C@@H]2CN(C)CCO2)[nH]c2c1C(=O)N[C@H](C)C2 [Example 11, (6R)-3-(3-chloro-2-methoxyanilino)-6-methyl-2-(3-{[(2S)-4-methylmorpholin-2-yl]methoxy}pyridin-4-yl)-1,5,6,7-tetrahydro-4H-pyrrolo[3,2-c]pyridin-4-one] | 17.8 | 0.179 nM | 264 | > 20000 nM |
| Cc1c(Cl)cccc1Nc1c(-c2ccncc2OCC2COCCO2)[nH]c2c1C(=O)NCC2C (stereo not drawn) [Example 66, 3-(3-chloro-2-methyl-anilino)-2-[3-(1,4-dioxan-2-ylmethoxy)-4-pyridyl]-7-methyl-1,5,6,7-tetrahydropyrrolo[3,2-c]pyridin-4-one] | 42.8 | 0.145 nM | 766 | 1730 nM |
| COc1c(Cl)cccc1Nc1c(-c2ccncc2OC[C@@H]2COCCN2C)[nH]c2c1C(=O)NCC2CCF (single isomer, unassigned) [Example 90] | 83.8 | 0.499 nM | 1170 | 3880 nM |
| Cc1c(Cl)cccc1Nc1c(-c2ccncc2OCC2COCCO2)[nH]c2c1C(=O)NCC2C (single isomer, unassigned) [Example 69, 3-(3-chloro-2-methyl-anilino)-2-[3-(1,4-dioxan-2-ylmethoxy)-4-pyridyl]-7-methyl-1,5,6,7-tetrahydropyrrolo[3,2-c]pyridin-4-one] | 72.4 | 0.269 nM | 2180 | 1730 nM |
| COc1c(Cl)cccc1Nc1c(-c2ccncc2OCC(C)OC)[nH]c2c1C(=O)N[C@H](C)C2 (single isomer, unassigned) [Example 81] | 44 | 0.157 nM | 583 | 4870 nM |
| COc1c(Cl)cccc1Nc1c(-c2ccncc2OC[C@@H]2CCCO2)[nH]c2c1C(=O)NCC2C (mixture of isomers) [Example 30, 3-(3-chloro-2-methoxy-anilino)-7-methyl-2-(3-{[(2S)-tetrahydrofuran-2-yl]methoxy}-4-pyridyl)-1,5,6,7-tetrahydropyrrolo[3,2-c]pyridin-4-one] | 44 | 0.147 nM | 606 | 11300 nM |
| COc1c(Cl)cccc1Nc1c(-c2ccncc2OC[C@@H]2CCCO2)[nH]c2c1C(=O)NC(C(F)(F)F)C2 (single isomer, unassigned) [Example 40] | 64.3 | 0.0981 nM and <0.0725 nM | 480 | 399 nM |
| COc1c(Cl)cccc1Nc1c(-c2ccncc2OCC2(C)CCO2)[nH]c2c1C(=O)NCC2CCO (single isomer, unassigned) [Example 23, 3-(3-chloro-2-methoxyanilino)-7-(2-hydroxyethyl)-2-{3-[(2-methyloxetan-2-yl)methoxy]pyridin-4-yl}-1,5,6,7-tetrahydro-4H-pyrrolo[3,2-c]pyridin-4-one] | 920 | 0.796 nM | 7380 | > 20000 nM |
| COc1c(F)cccc1Nc1c(-c2ccncc2OC[C@@H]2CCCO2)[nH]c2c1C(=O)NC(C)C2 (mixture of isomers) [Example 8, 3-(3-fluoro-2-methoxyanilino)-6-methyl-2-(3-{[(2S)-oxolan-2-yl]methoxy}pyridin-4-yl)-1,5,6,7-tetrahydro-4H-pyrrolo[3,2-c]pyridin-4-one] | 73.3 | 0.246 nM | 623 | 12800 nM and 9720 nM and > 20000 nM |
| C=CCOCCOc1cnccc1-c1[nH]c2c(c1Nc1cccc(Cl)c1OC)C(=O)NCC2CC=C (stereo not drawn) [Example 114, 7-allyl-2-[3-(2-allyloxyethoxy)-4-pyridyl]-3-(3-chloro-2-methoxy-anilino)-1,5,6,7-tetrahydropyrrolo[3,2-c]pyridin-4-one] | 28.7 | 0.181 nM | 347 | 2070 nM |
| COc1c(Cl)cccc1Nc1c(-c2ccncc2OCC2COCCO2)[nH]c2c1C(=O)NC1(CCC1)C2 (single isomer, unassigned) [Example 124, 3-(3-chloro-2-methoxy-anilino)-2-[3-(1,4-dioxan-2-ylmethoxy)-4-pyridyl]spiro[5,7-dihydro-1H-pyrrolo[3,2-c]pyridine-6,1′-cyclobutane]-4-one] | 26 | 0.315 nM | 513 | 479 nM |
| Cc1c(Cl)cccc1Nc1c(-c2ccncc2OC[C@@H]2CCCO2)[nH]c2c1C(=O)NCC2C (mixture of isomers) [Example 58, 3-(3-chloro-2-methyl-anilino)-7-methyl-2-(3-{[(2S)-oxolan-2-yl]methoxy}pyridin-4-yl)-1,5,6,7-tetrahydropyrrolo[3,2-c]pyridin-4-one] | 72.9 | 0.148 nM | 1250 | 3360 nM |
| COc1c(Cl)cccc1Nc1c(-c2ccncc2OCC2OCCC2(F)F)[nH]c2c1C(=O)N[C@H](C)C2 (single isomer, unassigned) [Example 73] | 55.3 | 0.179 nM | 643 | 4060 nM |
| Cc1c(Cl)cccc1Nc1c(-c2ccncc2OC[C@@H]2COCCO2)[nH]c2c1C(=O)N[C@H](C)C2 [Example 103, (6R)-3-(3-chloro-2-methylanilino)-2-(3-{[(2S)-1,4-dioxan-2-yl]methoxy}pyridin-4-yl)-6-methyl-1,5,6,7-tetrahydro-4H-pyrrolo[3,2-c]pyridin-4-one] | 32.2 | 0.184 nM | 529 | 1650 nM |
